Assay results: article PMC6680932, “Structure–Antioxidant–Antiproliferative Activity Relationships of Natural C7 and C7–C8 Hydroxylated Flavones and Flavanones” (Antioxidants, 2019)

Tests used:
MCF7 (breast carcinoma) = assay: Antiproliferative activity in vitro, SRB assay; assay type: cell-based, human; conditions: Homo sapiens, MCF7; 72 h exposure, SRB; read-out: IC50 ± SD MCF7
[1] = test system: LoVo/DX (colon cancer doxorubicin-resistant); assay: Antiproliferative activity in vitro, SRB assay; assay type: cell-based, human; conditions: Homo sapiens, LoVo/DX, 72 h exposure, read-out: IC50 ± SD LoVo/DX
DU 145 (prostate cancer) = assay: Antiproliferative activity in vitro, SRB assay; assay type: cell-based, human; conditions: Homo sapiens, DU-145; 72 h exposure, SRB; read-out: IC50 ± SD DU 145
[2] = Stability of flavonoids in culture media without cells (control), HPLC; assay type: physicochemical; conditions: HLMEC and MCF7 culture media not containing cells, 3 h
Method: Flavonoids dissolved (as described in Section 2.4) were added to the HLMEC and MCF7 line cultures, and the final concentration was 100 μg/mL. The cultures were incubated in 96-well plates for 3 h and transferred to microtubes containing 400 µL of cold methanol (−20 °C) and kept at −20 °C for 1 h. After centrifugation at 12,000× g for 10 min, samples were analyzed by HPLC. To determine the stability of flavonoids in HLMEC and MCF7 culture media (not containing cells) under analogous conditions, control experiments were also carried out.

[3] = FRAP (ferric ion reducing antioxidant power) assay; conditions: 10 min, 593 nm; mean ± SD
Method: The antioxidant capacity of flavonoids was measured in three separate tests: ABTS, DPPH, and ferric ion reducing antioxidant power (FRAP) assays (ABTS, DPPH, and FRAP reagents from Sigma-Aldrich). All tested compounds were dissolved in DMSO. All determinations were performed in triplicate. Standard curves were prepared for all assays using different concentrations of Trolox (6-hydroxy-2,5,7,8-tetramethylchroman-2-carboxylic acid) (Sigma-Aldrich). Trolox is a water-soluble analogue of vitamin E with high antioxidant activity, commonly used as a control and a reference in studies of antioxidant activity. The results were expressed as the equivalent of μmol Trolox per μmol of the test compound. The absorbance was measured using a UV-2401 PC spectrophotometer (Shimadzu, Kyoto, Japan). Concentrations of the tested samples were in the range from 50 µg/mL to 10 mg/mL.
The FRAP method is based on measuring the ability of antioxidants to reduce ferric 2,4,6-tris(2-pyridyl)-1,3,5-triazine [Fe(III)-TPTZ] in the blue colored ferrous form, which absorbs light at λ = 593 nm. The Fe(III)-TPTZ reagent was prepared as a mixture of acetate buffer (pH 3.6), 10 mM TPTZ in 40 mM HCl, and 20 mM FeCl3 in the ratio of 10:1:1 (v/v/v). The FRAP reagent was freshly prepared before each experiment. The samples (0.1 mL) were mixed in polystyrene cuvettes with 3 mL of ferric complex and 0.9 mL of distilled water. The absorbance was measured after 10 min at λ = 593 nm.

Structure (SMILES)	IC50 (MCF7 (breast carcinoma)) [µM]	IC50 [1] [µM]	IC50 (DU 145 (prostate cancer)) [µM]	compound remaining in culture media without cells [2]	TEAC FRAP [3]
O=c1cc(-c2ccc(O)cc2)oc2cc(O)cc(O)c12 [Compound 2, apigenin]	22.5 ± 1.29	11.6 ± 1.35	28.9 ± 8.4	over 98%	
O=C1C[C@@H](c2ccc(O)cc2)Oc2cc(O)cc(O)c21 [Compound 6, naringenin]	215 ± 32.3	129 ± 9.74	242 ± 15.6	over 98%	
O=c1cc(-c2ccc(O)cc2)oc2c(O)c(O)cc(O)c12 [Compound 10, 8-hydroxyapigenin]					7.824 ± 0.657 µmol trolox per µmol of tested
